From ChEMBL document CHEMBL1201862, “PubChem BioAssay data set” (2004)
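Results reflect a 48-hour exposure of cells in 96-well plates to compound at five concentrations. GI50 marks 50% less growth.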 Active and inactive are the calls of the source. No stated cut-off is given here; in the data, active = GI50 up to about 1.1 µM and inactive = higher.

Experiments:
Experiment in all cases: inhibition of tumour cell growth, NCI panel, 48 h
SW-620 = tested on: SW-620
SK-MEL-5 = tested on: SK-MEL-5
BT-549 = tested on: BT-549
NCI-H23 = tested on: NCI-H23
COLO 205 = tested on: COLO 205
SR = tested on: SR
SF-268 = tested on: SF-268
NCI-H226 = tested on: NCI-H226
MOLT-4 = tested on: MOLT-4
SF-295 = tested on: SF-295
MDA-MB-231 = tested on: MDA-MB-231
EKVX = tested on: EKVX
Malme-3M = tested on: Malme-3M
SNB-19 = tested on: SNB-19
OVCAR-3 = tested on: OVCAR-3
NCI/ADR-RES = tested on: NCI/ADR-RES
IGROV-1 = tested on: IGROV-1
RPMI-8226 = tested on: RPMI-8226
K562 = tested on: K562
HT-29 = tested on: HT-29

| Compound | GI50 (SW-620) | GI50 (SK-MEL-5) | GI50 (BT-549) | GI50 (NCI-H23) | GI50 (COLO 205) | GI50 (SR) | GI50 (SF-268) | GI50 (NCI-H226) | GI50 (MOLT-4) | GI50 (SF-295) | GI50 (MDA-MB-231) | GI50 (EKVX) | GI50 (Malme-3M) | GI50 (SNB-19) | GI50 (OVCAR-3) | GI50 (NCI/ADR-RES) | GI50 (IGROV-1) | GI50 (RPMI-8226) | GI50 (K562) | GI50 (HT-29) |
| --- | --- | --- | --- | --- | --- | --- | --- | --- | --- | --- | --- | --- | --- | --- | --- | --- | --- | --- | --- | --- |
| O=C(NCc1ccccc1)c1c(O)nc2ccccc2c1O | > 100 µM (inactive) | > 100 µM (inactive) | > 100 µM (inactive) | > 100 µM (inactive) | > 100 µM (inactive) | > 100 µM (inactive) | > 100 µM (inactive) | > 100 µM (inactive) | > 100 µM (inactive) | > 100 µM (inactive) | > 100 µM (inactive) | > 100 µM (inactive) | > 100 µM (inactive) | > 100 µM (inactive) | > 100 µM (inactive) | > 100 µM (inactive) | > 100 µM (inactive) | > 100 µM (inactive) | > 100 µM (inactive) | > 100 µM (inactive) |
| N#CC1=C(N)OC2=C(CCCc3ccccc32)C1c1ccc([N+](=O)[O-])cc1 (stereo not given) | 13.6 µM (inactive) | 14.3 µM (inactive) | 2.91 µM (inactive) | 15.2 µM (inactive) | 16.1 µM (inactive) | 10.9 µM (inactive) | 15.1 µM (inactive) | 24.7 µM (inactive) | 0.336 µM (active) | 14.9 µM (inactive) | 26.9 µM (inactive) | 13.8 µM (inactive) | 16.3 µM (inactive) | 17.3 µM (inactive) | 13.5 µM (inactive) | 11.9 µM (inactive) | 19.2 µM (inactive) | 1.85 µM (inactive) | 2.07 µM (inactive) | 12.2 µM (inactive) |
| CC(=O)SC(C[N+](=O)[O-])c1ccc2c(c1)OCO2 (stereo not given) | 3.24 µM (inactive) | 6.95 µM (inactive) | 6.17 µM (inactive) | 5.89 µM (inactive) | 6.37 µM (inactive) | 2.5 µM (inactive) | 15.9 µM (inactive) | 18.7 µM (inactive) | 2.98 µM (inactive) | 10.9 µM (inactive) | 7.45 µM (inactive) | 21.4 µM (inactive) | 8.11 µM (inactive) | 9.31 µM (inactive) | 8.24 µM (inactive) | 11.6 µM (inactive) | 5.2 µM (inactive) | 1.39 µM (inactive) | 3.38 µM (inactive) | 2.49 µM (inactive) |
| COc1cc2c(cc1OCCCCCCCCCCN1C(=O)c3cccc4cccc(c34)C1=O)N=C[C@@H]1CCCN1C2=O | 4.34 µM (inactive) | 10.9 µM (inactive) | 6.25 µM (inactive) | 6.21 µM (inactive) | 3.52 µM (inactive) | 0.902 µM (active) | 8.51 µM (inactive) | 1.72 µM (inactive) | 2.41 µM (inactive) | 6.55 µM (inactive) | 3.62 µM (inactive) | 2.11 µM (inactive) | 12 µM (inactive) | 13.7 µM (inactive) | 3.73 µM (inactive) | 2.64 µM (inactive) | 1.59 µM (inactive) | 1.82 µM (inactive) | 5.26 µM (inactive) | 6.76 µM (inactive) |
| CC(NC1=CC(=O)c2ncccc2C1=O)C(O)c1ccccc1 (stereo not given) | 4.9 µM (inactive) | 1.18 µM (inactive) | 1.85 µM (inactive) | 1.62 µM (inactive) | 16 µM (inactive) | 8.36 µM (inactive) | 12.2 µM (inactive) | 5.55 µM (inactive) | 8.63 µM (inactive) | 3.32 µM (inactive) | 2.41 µM (inactive) | 12.6 µM (inactive) | 1.89 µM (inactive) | 6.35 µM (inactive) | 2.45 µM (inactive) | 8.15 µM (inactive) | 3.67 µM (inactive) | 13.4 µM (inactive) | 2.04 µM (inactive) | 11.5 µM (inactive) |
| COc1nc(N)c(/N=C/C(OC(C)=O)C(OC(C)=O)C(COC(C)=O)OC(C)=O)c(=O)n1C (stereo not given) | > 100 µM (inactive) | > 100 µM (inactive) | > 100 µM (inactive) | > 100 µM (inactive) | > 100 µM (inactive) | > 100 µM (inactive) | > 100 µM (inactive) | > 100 µM (inactive) | > 100 µM (inactive) | > 100 µM (inactive) | > 100 µM (inactive) | > 100 µM (inactive) | > 100 µM (inactive) | > 100 µM (inactive) | > 100 µM (inactive) | > 100 µM (inactive) | > 100 µM (inactive) | > 100 µM (inactive) | > 100 µM (inactive) | > 100 µM (inactive) |
| N=C(N)N/N=C/c1cnn(C(=N)N)c1 | > 100 µM (inactive) | > 100 µM (inactive) | > 100 µM (inactive) | > 100 µM (inactive) | > 100 µM (inactive) | > 100 µM (inactive) | > 100 µM (inactive) | > 100 µM (inactive) | > 100 µM (inactive) | > 100 µM (inactive) | > 100 µM (inactive) | 45.7 µM (inactive) | > 100 µM (inactive) | > 100 µM (inactive) | > 100 µM (inactive) | > 100 µM (inactive) | > 100 µM (inactive) | > 100 µM (inactive) | > 100 µM (inactive) | > 100 µM (inactive) |
